Data from patent US9718817B2, “Aryl and heteroaryl ether compounds as ROR gamma modulators” (Glenmark Pharmaceuticals S.A., priority 2014, dated 2017).

Molecular target: T1, GST-tagged ROR gamma ligand binding domain (LBD) (Homo sapiens, UniProt P51449)
T1 construct: purchased Invitrogen
T1 sequence (P51449 269-508 limits assumed): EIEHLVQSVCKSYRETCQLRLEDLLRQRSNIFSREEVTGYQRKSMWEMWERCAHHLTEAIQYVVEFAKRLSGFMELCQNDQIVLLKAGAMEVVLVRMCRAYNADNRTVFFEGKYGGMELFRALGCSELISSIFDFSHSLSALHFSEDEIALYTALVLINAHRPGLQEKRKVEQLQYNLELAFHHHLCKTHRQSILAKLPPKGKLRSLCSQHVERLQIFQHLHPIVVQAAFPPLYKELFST
Assay: TR-FRET assay for ROR gamma (LanthaScreen co-activator peptide recruitment)
Assay type: biochemical
Details: for IC50: class symbols, from dose response curve; for inhibition at 1 µM: compound 1 μM; for inhibition at 1 µM / inhibition at 10 µM: TR-FRET ratio 520/495, percent of control; for inhibition at 10 µM: compound 10 μM
Excerpt: The compounds described herein were screened for ROR gamma modulator activity using the TR-FRET assay by Lantha Screen as described in JBC 2011, 286, 26: 22707-10; and Drug Metabolism and Disposition 2009, 37, 10: 2069-78.
The assay is based on the principle that binding of the agonist to the ROR gamma causes a conformational change around helix 12 in the ligand binding domain, resulting in higher affinity for the co-activator peptide. ROR gamma being constitutively active, the Fluorescein-D22 co-activator peptide used in the assay is recruited in the absence of a ligand. Binding of the co-activator peptide, causes an increase in the TR-FRET signal while binding of an antagonist decreases the recruitment of the co-activator peptide, causing a decrease in the TR-FRET signal compared to control with no compound. The assay was performed using a two-step procedure, pre-incubation step with the compound followed by the detection step on addition of the anti-GST tagged terbium (Tb) and fluorescein tagged fluorophores as the acceptor.
Test compounds or reference compounds such as T0901317 (Calbiochem) were dissolved in dimethylsulfoxide (DMSO) to prepare 10.0 mM stock solutions and diluted to the desired concentration. The final concentration of DMSO in the reaction was 4% (v/v). The assay mixture was prepared by mixing 10 nM of the GST-tagged ROR gamma ligand binding domain (LBD) in the assay buffer containing 25 mM HEPES (pH 7.4), 100 mM NaCl, 5 mM DTT and 0.01% BSA with or without the desired concentration of the compound. The reaction was incubated at 22° C. for 1 hour. The pre-incubation step was terminated by addition of the detection mixture containing 300 nM Fluorescein-D22 co-activator peptide and 10 nM lantha screen Tb-anti GST antibody into the reaction mixture. After shaking for 5 minutes the reaction was further incubated for 1 hour at room temperature and read at 4° C. on an Infinite F500 reader as per the kit instructions (Invitrogen). The inhibition of test compound was calculated based on the TR-FRET ratio of 520/495. The activity was calculated as a percent of control reaction. IC50 values were calculated from dose response curve by nonlinear regression analysis using GraphPad Prism software.
Percentage inhibition at concentrations of 1.0 μM and 10.0 μM are given in the table along with IC50 (nM) details for selected examples.

Structure (SMILES)	IC50	inhibition at 1 µM	inhibition at 10 µM
CCS(=O)(=O)c1ccc(CC(=O)Nc2ccc(OC3(c4nc5cc(Cl)ccc5n4C)CCC3)cc2)cc1 [Example 25, N-{4-[1-(5-Chloro-1-methyl-1H-benzoimidazol-2-yl)-cyclobutoxy]-phenyl}-2-(4-ethanesulfonyl-phenyl)-acetamide]	50 to 100 nM	85.3%	94.2%
CCn1c(C2(Oc3ccc(NC(=O)Cc4ccc(S(=O)(=O)CC)cc4)cc3)CCC2)nc2cc(F)ccc21 [Example 26, 2-(4-Ethanesulfonyl-phenyl)-N-{4-[1-(1-ethyl-5-fluoro-1H-benzoimidazol-2-yl)-cyclobutoxy]-phenyl}-acetamide]	50 to 100 nM	80.5%	90.9%
CCS(=O)(=O)c1ccc(CC(=O)Nc2ccc(OC3(c4nnc5ccc(Cl)cn45)CCC3)cc2)cc1 [Example 27, N-{4-[1-(6-Chloro-[1,2,4]triazolo[4,3-a]pyridin-3-yl)-cyclobutoxy]-phenyl}-2-(4-ethanesulfonyl-phenyl)-acetamide]	50 to 100 nM	69.7%	90%
CCS(=O)(=O)c1ccc(CC(=O)Nc2ccc(OC(C)(C)c3noc(-c4ccc(Cl)cc4)n3)cc2)cc1 [Example 28, N-(4-{1-[5-(4-Chloro-phenyl)-[1,2,4]oxadiazol-3-yl]-1-methyl-ethoxy}-phenyl)-2-(4-ethanesulfonyl-phenyl)-acetamide]	–	61.1%	84.4%
CCS(=O)(=O)c1ccc(CC(=O)Nc2ccc(OC(C)(C)Cn3ccc4cc(Cl)ccc43)cc2)cc1 [Example 29, N-(4-{[1-(5-Chloro-1H-indol-1-yl)-2-methylpropan-2-yl]oxy}phenyl)-2-[4-(ethylsulfonyl)phenyl]acetamide]	< 50 nM	80.3%	82.8%
CCS(=O)(=O)c1ccc(CC(=O)Nc2ccc(OC(C)(C)Cn3c(C)cc4cc(F)ccc43)cc2)cc1 [Example 30, 2-[4-(Ethylsulfonyl)phenyl]-N-(4-{[1-(5-fluoro-2-methyl-1H-indol-1-yl)-2-methylpropan-2-yl]oxy}phenyl)acetamide]	–	67.7%	70.7%
CCS(=O)(=O)c1ccc(CC(=O)Nc2ccc(OC3(c4ccc(Cl)cc4)CCC3)cc2)cc1 [Example 31, N-{4-[1-(4-Chloro-phenyl)-cyclobutoxy]-phenyl}-2-(4-ethanesulfonyl-phenyl)-acetamide]	50 to 100 nM	81.9%	89.1%
CCS(=O)(=O)c1ccc(CC(=O)Nc2ccc(OC3(c4ccc(Cl)c(F)c4)CCC3)cc2)cc1 [Example 32, N-(4-{[1-(4-Chloro-3-fluorophenyl)cyclobutyl]oxy}phenyl)-2-[4-(ethylsulfonyl)phenyl]acetamide]	< 50 nM	83.7%	88.5%
CCS(=O)(=O)c1ccc(CC(=O)Nc2ccc(OC3(c4ccc(Cl)cc4F)CCC3)cc2)cc1 [Example 33, N-(4-{[1-(4-Chloro-2-fluorophenyl)cyclobutyl]oxy}phenyl)-2-[4-(ethylsulfonyl)phenyl]acetamide]	–	76.7%	81.8%
CCS(=O)(=O)c1ccc(CC(=O)Nc2ccc(OC3(c4ccc(F)c(F)c4)CCC3)cc2)cc1 [Example 34, N-{4-[1-(3,4-Difluoro-phenyl)-cyclobutoxy]-phenyl}-2-(4-ethanesulfonyl-phenyl)-acetamide]	< 50 nM	86.6%	89.7%
CCS(=O)(=O)c1ccc(CC(=O)Nc2ccc(OC3(c4ccc(F)c(F)c4)CCOCC3)cc2)cc1 [Example 35, N-{4-[4-(3,4-Difluoro-phenyl)-tetrahydro-pyran-4-yloxy]-phenyl}-2-(4-ethanesulfonyl-phenyl)-acetamide]	50 to 100 nM	79.5%	86.7%
